From the supplement of paper PMC11451515

Legend:
Assay in all cases: AUC of viability dose-response curve (% viability x log10 dose units); higher = less sensitive
Details in all cases: 48 h
NOMO1 = test system: NOMO1
How it was run: (§1)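 Library compounds in DMSO were applied for 48 h at 37°C at 11 threefold doses (47 μM to 0.79 nM) to medium-adapted leukemia cells in 1536-well plates holding 500 or 1000 cells/well. Luminescence from CellTiter-Glo One was normalised plate by plate against DMSO and cell-free wells. Area under the curve came from trapezoidal integration of a log-logistic fit, after scaling curves that rose above full viability and discarding those that failed quality control. The fit had four parameters and used log10 doses.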

SEM cells = test system: SEM cells
How it was run: as §1

P12-Ichikawa = test system: P12-Ichikawa
How it was run: as §1

[1] = RPMI 5 mM glucose + 10% dialyzed FBS

Structure (SMILES) | AUC of viability dose-response curve (NOMO1; HPLM + 10% dialyzed FBS) | AUC of viability dose-response curve (NOMO1; RPMI 5 mM glucose + 10% FBS) | AUC of viability dose-response curve (NOMO1; [1]) | AUC of viability dose-response curve (SEM cells; HPLM + 10% dialyzed FBS) | AUC of viability dose-response curve (SEM cells; RPMI 5 mM glucose + 10% FBS) | AUC of viability dose-response curve (SEM cells; [1]) | AUC of viability dose-response curve (P12-Ichikawa; HPLM + 10% dialyzed FBS) | AUC of viability dose-response curve (P12-Ichikawa; RPMI 5 mM glucose + 10% FBS) | AUC of viability dose-response curve (P12-Ichikawa; [1])
N=C(N)Nc1ccc(C(=O)Oc2ccc3cc(C(=N)N)ccc3c2)cc1 | 446 | 406 | 396 | 419 | 392 | 441 | 437 | 443 | 404
Cc1nc(N)ncc1-c1nc(N2CCOCC2)c2sc(C(C)(C)O)cc2n1 | 204 | 264 | 285 | 249 | 163 | 220 | 213 | 279 | 276
Oc1c(Cl)cc(Cl)c2cccnc12 | 446 | 438 | 462 | 435 | 439 | 433 | 465 | 447 | 449
COc1cc(OC)c(C(=O)CCCN2CCCC2)c(OC)c1 | 448 | 440 | 441 | 446 | 451 | 443 | 464 | 456 | 417
O=C(O)Cc1cccc(OCCCN(Cc2cccc(C(F)(F)F)c2Cl)CC(c2ccccc2)c2ccccc2)c1 | 432 | 461 | 465 | 444 | 437 | 456 | 460 | 442 | 450
CC1=C(/C=C/C(C)=C/C=C/C(C)=C/C(=O)O)C(C)(C)CCC1 | 434 | 443 | 412 | 475 | 465 | 450 | 468 | 464 | 467
CN(C)CCc1c[nH]c2ccc(C[S+](=O)([O-])N3CCCC3)cc12 | 459 | 468 | 460 | 453 | 427 | 433 | 471 | 466 | 466
Cc1cnc(Nc2ccc(N3CCN(C)CC3)cc2)nc1Nc1cccc([S+](=O)([O-])NC(C)(C)C)c1 | 375 | 411 | 406 | 311 | 303 | 324 | 400 | 390 | 400
Oc1ccc2ccccc2c1SSc1c(O)ccc2ccccc12 | 470 | 469 | 469 | 453 | 450 | 417 | 474 | 464 | 463
Nc1ccc([S+](=O)([O-])Nc2ncccn2)cc1 | 467 | 444 | 452 | 460 | 462 | 437 | 464 | 452 | 471
COc1ccc(-c2oc3cc(OC)ccc3c2C(=O)c2ccc(C#N)cc2)cc1 | 326 | 311 | 321 | 455 | 460 | 451 | 354 | 345 | 374
COc1cc2ncnc(Nc3cccc(Cl)c3)c2cc1OC | 286 | 370 | 343 | 287 | 242 | 274 | 309 | 315 | 305
CC(C)(C)OC(=O)Nc1ccc(-c2cc(C(=O)NCCCCCCC(=O)NO)no2)cc1 | 379 | 346 | 361 | 343 | 333 | 288 | 333 | 297 | 276
NC[C@H]1O[C@H](O[C@H]2[C@H](O)[C@@H](O[C@H]3O[C@H](CO)[C@@H](O)[C@H](N)[C@H]3O)[C@H](N)C[C@@H]2N)[C@H](N)C[C@@H]1O | 467 | 467 | 452 | 455 | 470 | 469 | 459 | 455 | 413
O=C(NCc1ccccc1)c1csc(Nc2ccncn2)n1 | 345 | 331 | 335 | 310 | 287 | 310 | 386 | 358 | 367
Cn1cnc([N+](=O)[O-])c1Sc1ncnc2nc[nH]c12 | 353 | 342 | 353 | 398 | 337 | 299 | 381 | 365 | 367
Cc1ccc(/C=N/NC(=O)c2ccccc2Oc2ccccc2)o1 | 456 | 418 | 457 | 452 | 468 | 388 | 452 | 432 | 410
CCCCc1nc2cc(/C=C/C(=O)NO)ccc2n1CCN(CC)CC | 370 | 326 | 349 | 344 | 345 | 303 | 345 | 337 | 348
CC(C)CC(N(C)C)C1(c2ccc(Cl)cc2)CCC1 (stereo unspecified) | 441 | 457 | 463 | 424 | 408 | 406 | 393 | 392 | 382
Nc1ccn([C@H]2CS[C@@H](CO)O2)c(=O)n1 | 459 | 464 | 472 | 454 | 445 | 470 | 440 | 471 | 464
NC\1=N\C(=O)N(\C=C1F)[C@H]2C[C@H](O)[C@@H](CO)O2 | 280 | 360 | 239 | 270 | 359 | 201 | 285 | 279 | 264
CCCCCCCCCCCC/1=C(O)/C(=O)/C=C(O)\C1=O | 326 | 301 | 326 | 462 | 454 | 457 | 357 | 357 | 375
COc1ccc2[nH]cc(CCNC(C)=O)c2c1 | 474 | 429 | 462 | 472 | 469 | 446 | 451 | 458 | 444
COC(=O)Nc1nc2ccc([S+]([O-])c3ccccc3)cc2[nH]1 (stereo unspecified) | 460 | 468 | 466 | 417 | 438 | 441 | 441 | 454 | 461
N#CC[C@H](C1CCCC1)n1cc(-c2ncnc3[nH]ccc23)cn1 | 384 | 374 | 407 | 405 | 396 | 402 | 408 | 401 | 372
O=C1N\C=N/C2=C1C=N[NH]2 | 425 | 421 | 382 | 359 | 350 | 384 | 393 | 397 | 398
Cc1ccc(-c2cc(C(F)(F)F)nn2-c2ccc([S+](N)(=O)[O-])cc2)cc1 | 451 | 468 | 463 | 464 | 460 | 470 | 471 | 463 | 468
OC[C@H]1OC(OC2=CC3=C(C(=C2)O)C(=O)\C(=C/O3)C4=CC=C(O)C=C4)[C@H](O)[C@@H](O)[C@@H]1O (stereo partly specified) | 391 | 407 | 372 | 408 | 454 | 451 | 405 | 401 | 391
CC(C)c1c(C(=O)Nc2ccccc2)c(-c2ccccc2)c(-c2ccc(F)cc2)n1CC[C@@H](O)C[C@@H](O)CC(=O)[O-] | 428 | 431 | 412 | 440 | 439 | 447 | 448 | 400 | 409
